Measured values: PubChem BioAssay AID256 (DTP/NCI, 2004)
Toxic doses and inconclusive results are not listed. Rule for the calls: active = survival T/C of 150% or more; inactive = T/C below 125% in these data.

Test system: CD2F1 mice, L1210 leukemia ip, survival T/C
Assay: NCI In Vivo Anticancer Drug Screen. Data for tumor model L1210 Leukemia (intraperitoneal) in CD2F1 (CDF1) mice
Conditions: endpoint: mean survival time, higher = longer survival
How it was run: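 Compound-dosed mice with transplantable tumor versus matched vehicle controls; endpoint ratio T/C reported.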

[1] = dose: 100.0 mg/kg/injection, schedule: Q01DX001 (ip), vehicle: saline with Tween-80
[2] = dose: 100.0 mg/kg/injection, schedule: Q01DX009 (ip), vehicle: saline with Tween-80
[3] = dose: 200.0 mg/kg/injection, schedule: Q01DX001 (ip), vehicle: saline with Tween-80
[4] = dose: 400.0 mg/kg/injection, schedule: Q01DX001 (ip), vehicle: saline with Tween-80
[5] = dose: 100.0 mg/kg/injection, schedule: Q04DX002 (ip), vehicle: saline with Tween-80
[6] = dose: 200.0 mg/kg/injection, schedule: Q04DX002 (ip), vehicle: saline with Tween-80
[7] = dose: 400.0 mg/kg/injection, schedule: Q04DX002 (ip), vehicle: saline with Tween-80
[8] = dose: 100.0 mg/kg/injection, schedule: Q04DX003 (ip), vehicle: saline with Tween-80
[9] = dose: 200.0 mg/kg/injection, schedule: Q04DX003 (ip), vehicle: saline with Tween-80
[10] = dose: 400.0 mg/kg/injection, schedule: Q04DX003 (ip), vehicle: saline with Tween-80
[11] = dose: 50.0 mg/kg/injection, schedule: Q01DX009 (ip), vehicle: saline with Tween-80
[12] = dose: 200.0 mg/kg/injection, schedule: Q01DX009 (ip), vehicle: saline with Tween-80
[13] = dose: 400.0 mg/kg/injection, schedule: Q01DX009 (ip), vehicle: saline with Tween-80
[14] = dose: 100.0 mg/kg/injection, schedule: Q04DX003 (ip), vehicle: saline
[15] = dose: 200.0 mg/kg/injection, schedule: Q04DX003 (ip), vehicle: saline
[16] = dose: 400.0 mg/kg/injection, schedule: Q04DX003 (ip), vehicle: saline

Measured: T/C

c1ccc(N/N=C2/c3ccccc3CC23OC3c2ccccc2)cc1 (configuration not stated)
inactive: dose: 25.0 mg/kg/injection, schedule: Q01DX009 (ip), vehicle: Klucel (hydroxypropylcellulose) (HPC) 97 % of control | dose: 50.0 mg/kg/injection, schedule: Q01DX009 (ip), vehicle: Klucel (hydroxypropylcellulose) (HPC) 97 % of control | dose: 100.0 mg/kg/injection, schedule: Q01DX009 (ip), vehicle: Klucel (hydroxypropylcellulose) (HPC) 91 % of control | dose: 200.0 mg/kg/injection, schedule: Q01DX009 (ip), vehicle: Klucel (hydroxypropylcellulose) (HPC) 97 % of control | dose: 400.0 mg/kg/injection, schedule: Q01DX009 (ip), vehicle: Klucel (hydroxypropylcellulose) (HPC) 97 % of control

COc1ccc(C2=NC(C)Cc3cc(OC)c(OC)cc32)cc1OC (configuration not stated)
inactive: dose: 12.5 mg/kg/injection, schedule: Q01DX009 (ip), vehicle: water 96 % of control | dose: 25.0 mg/kg/injection, schedule: Q01DX009 (ip), vehicle: water 94 % of control | dose: 50.0 mg/kg/injection, schedule: Q01DX009 (ip), vehicle: water 94 % of control | dose: 100.0 mg/kg/injection, schedule: Q01DX009 (ip), vehicle: water 91 % of control

CS(=O)(=O)OCCCN(CCCOS(C)(=O)=O)c1ccc(C=Nc2ccc(-c3csc(COc4ccc(Cl)cc4Cl)n3)cc2)cc1
inactive: [1] 86 % of control | [2] 93 % of control | [3] 86 % of control | [4] 89 % of control

Cc1ccc(C2=CC(=O)C(c3ccc(C)cc3C)=CC2=O)c(C)c1
inactive: [1] 92 % of control | [5] 86 % of control | [3] 91 % of control | [6] 93 % of control | [4] 94 % of control | [7] 101 % of control

[Cl][PtH].c1ccc([PH+](c2ccccc2)c2ccccc2)cc1.c1ccc([PH+](c2ccccc2)c2ccccc2)cc1
inactive: [1] 92 % of control | [3] 92 % of control | [4] 95 % of control

O=C(OC(c1ccccc1)(C(F)(F)F)C(F)(F)F)c1ccccc1Sc1ccccc1
inactive: [8] 98 % of control | [9] 93 % of control | [10] 93 % of control

C#CCOCCC(C(=O)OCC)C(=O)OCC
inactive: dose: 100.0 mg/kg/injection, schedule: Q04DX003 (ip), vehicle: acetone 108 % of control | dose: 200.0 mg/kg/injection, schedule: Q04DX003 (ip), vehicle: acetone 103 % of control | dose: 400.0 mg/kg/injection, schedule: Q04DX003 (ip), vehicle: acetone 110 % of control

c1ccc(Oc2ccc(-c3ccc(Oc4ccccc4)cc3)cc2)cc1
inactive: [9] 95 % of control | [10] 91 % of control

C1CC2CCC3CCCC4CCC(C1)C2C34 (configuration not stated)
inactive: [11] 98 % of control | [2] 98 % of control | [8] 98 % of control | [12] 100 % of control | [9] 102 % of control

CC(C)(C)C(=O)C(Br)S(=O)(=O)C(Br)(Br)C(=O)C(C)(C)C (configuration not stated)
inactive: [2] 95 % of control | [12] 97 % of control | [13] 95 % of control

CCC1CCCCN1C (configuration not stated)
inactive: [8] 90 % of control

Cc1c(C)c(C(=O)O)c(C)c(C)c1C(=O)O
inactive: [14] 102 % of control | [15] 100 % of control | [16] 96 % of control

Cc1cc(Cl)ccc1NC(=O)OCCOc1ccc([N+](=O)[O-])cc1
inactive: [11] 96 % of control | [2] 96 % of control | [12] 100 % of control

O=S(O)C(=NCc1ccccc1)NCc1ccccc1
inactive: [2] 105 % of control | [12] 86 % of control

CC1CC(C)(C)N=C(C2CCCC2)O1 (configuration not stated)
inactive: [1] 96 % of control | [3] 96 % of control | [4] 100 % of control

CCCNC(C)(C)C(SS)c1ccc(C(F)(F)F)cc1 (configuration not stated)
inactive: dose: 200.0 mg/kg/injection, schedule: Q04DX003 (ip), vehicle: other 100 % of control | dose: 400.0 mg/kg/injection, schedule: Q04DX003 (ip), vehicle: other 90 % of control

CCOC(=O)C(=C=[N-])[n+]1ccc(C)cc1
inactive: dose: 6.25 mg/kg/injection, schedule: Q01DX001 (ip), vehicle: saline sonified 101 % of control | dose: 6.25 mg/kg/injection, schedule: Q01DX009 (ip), vehicle: saline sonified 94 % of control | dose: 12.5 mg/kg/injection, schedule: Q01DX001 (ip), vehicle: saline sonified 103 % of control | dose: 12.5 mg/kg/injection, schedule: Q01DX009 (ip), vehicle: saline sonified 94 % of control | dose: 25.0 mg/kg/injection, schedule: Q01DX001 (ip), vehicle: saline sonified 103 % of control | dose: 25.0 mg/kg/injection, schedule: Q01DX009 (ip), vehicle: saline sonified 89 % of control

COc1ccc(CCNC(=S)NC(=O)c2cc(OC)c(OC)c(OC)c2)cc1OC
inactive: [5] 87 % of control | [6] 97 % of control | [7] 102 % of control

C=C(C)CON=C(c1ccccc1)c1ccccc1
inactive: [2] 98 % of control | [12] 96 % of control | [13] 98 % of control

O=[N+]([O-])C(Br)C(Br)c1ccccc1 (configuration not stated)
inactive: dose: 6.25 mg/kg/injection, schedule: Q01DX001 (ip), vehicle: Klucel (hydroxypropylcellulose) (HPC) 96 % of control | dose: 12.5 mg/kg/injection, schedule: Q01DX001 (ip), vehicle: Klucel (hydroxypropylcellulose) (HPC) 97 % of control | dose: 25.0 mg/kg/injection, schedule: Q01DX001 (ip), vehicle: Klucel (hydroxypropylcellulose) (HPC) 91 % of control | dose: 50.0 mg/kg/injection, schedule: Q01DX001 (ip), vehicle: Klucel (hydroxypropylcellulose) (HPC) 102 % of control

O=C(/C=C\c1ccccc1)C(=O)/C=C/c1ccccc1
inactive: [8] 94 % of control | [9] 93 % of control | [10] 95 % of control

O=C1CC2C3C=CC(C12)C1C(=O)OC(=O)C31 (configuration not stated)
inactive: [14] 107 % of control | [15] 98 % of control | [16] 91 % of control

C[N+](C)(C)C1(Cc2ccc(Br)cc2)c2ccccc2-c2ccccc21
inactive: dose: 6.25 mg/kg/injection, schedule: Q04DX003 (ip), vehicle: saline with Tween-80 88 % of control | dose: 12.5 mg/kg/injection, schedule: Q04DX003 (ip), vehicle: saline with Tween-80 88 % of control | dose: 25.0 mg/kg/injection, schedule: Q04DX003 (ip), vehicle: saline with Tween-80 87 % of control | [8] 92 % of control

CCCCN(N=O)C(=O)Nc1ccc(C2CC(=O)N(C)C2=O)cc1 (configuration not stated)
inactive: dose: 12.5 mg/kg/injection, schedule: Q01DX001 (ip), vehicle: distilled water + Tween-80 103 % of control | dose: 25.0 mg/kg/injection, schedule: Q01DX001 (ip), vehicle: distilled water + Tween-80 99 % of control | dose: 50.0 mg/kg/injection, schedule: Q01DX001 (ip), vehicle: distilled water + Tween-80 112 % of control | dose: 100.0 mg/kg/injection, schedule: Q01DX001 (ip), vehicle: distilled water + Tween-80 112 % of control | dose: 200.0 mg/kg/injection, schedule: Q01DX001 (ip), vehicle: distilled water + Tween-80 120 % of control

CCCN=C(N)C(N)=NCCC (tested in a mixture with another compound)
inactive: dose: 100.0 mg/kg/injection, schedule: Q04DX002 (ip), vehicle: other 106 % of control | [5] 95 % of control | dose: 200.0 mg/kg/injection, schedule: Q04DX002 (ip), vehicle: other 103 % of control | [6] 100 % of control | dose: 400.0 mg/kg/injection, schedule: Q04DX002 (ip), vehicle: other 91 % of control | [7] 91 % of control

CNc1cc(=O)[nH]cn1
inactive: [1] 95 % of control | [3] 100 % of control | [4] 101 % of control

Cc1c2ccn(O)cc2c(C)c2c1nc1ccccc12
inactive: dose: 25.0 mg/kg/injection, schedule: Q04DX003 (ip), vehicle: water 110 % of control | dose: 50.0 mg/kg/injection, schedule: Q04DX003 (ip), vehicle: water 103 % of control | dose: 100.0 mg/kg/injection, schedule: Q04DX003 (ip), vehicle: water 110 % of control | dose: 200.0 mg/kg/injection, schedule: Q04DX003 (ip), vehicle: water 105 % of control | dose: 400.0 mg/kg/injection, schedule: Q04DX003 (ip), vehicle: water 106 % of control

CCCCCCC(O)C[N+](=O)[O-] (configuration not stated)
inactive: [11] 96 % of control | [12] 100 % of control

Cc1ccc(-c2nc(SCc3ccccc3)[nH]c(=O)c2CCO)cc1
inactive: dose: 100.0 mg/kg/injection, schedule: Q04DX003 (ip), vehicle: Klucel (hydroxypropylcellulose) (HPC) 93 % of control | dose: 200.0 mg/kg/injection, schedule: Q04DX003 (ip), vehicle: Klucel (hydroxypropylcellulose) (HPC) 96 % of control | dose: 400.0 mg/kg/injection, schedule: Q04DX003 (ip), vehicle: Klucel (hydroxypropylcellulose) (HPC) 91 % of control
